We go through nine compounds from patent publication US20230287138A1, “PROTEIN-DRUG CONJUGATES COMPRISING CAMPTOTHECIN ANALOGS AND METHODS OF USE THEREOF” (Regneron Pharmaceuticals, Inc., priority 2022, published 2023).

Each structure is given as a SMILES string. pEC50: −log10 of the molar value. Where a SMILES comes first, the peptide text is derived from it. The star is where a group is joined. Exatecan = CC[C@@]1(O)C(=O)OCc2c1cc1n(c2=O)Cc2c-1nc1cc(F)c(C)c3c1c2[C@@H](N*)CC3; Acetyl(cyclooct-2-yn-1-ylO) = O=C(COC1C#CCCCCC1)* Where only a bound is given, the exact number is not on record here.

Usually pEC50 stands for the negative decadic logarithm of the EC50, by convention in mol/L.

In the assay the test system is HCT-15. Put plainly: HCT-15 data of payloads and linker-payloads (EC50, with or without verapamil). The assay is classed as cell-based. To be noted: Homo sapiens; linker-payload, HCT-15 cells; read-out: HCT-15 EC50.
Regarding `CC[C@@]1(O)C(=O)OCc2c1cc1n(c2=O)Cc2c-1nc1cc(F)c(C)c3c1c2[C@@H](NC(=O)OCc1ccc(NC(=O)[C@H](CCCNC(N)=O)NC(=O)[C@@H](NC(=O)CCOCCOCCOCCOCCNC(=O)COC2C#CCCCCC2)C(C)C)cc1)CC3` (stereo partly drawn) [LP1, {4-[(2S)-5-(Carbamoylamino)-2-[(2S)-2-{1-[2-(cyclooct-2-yn-1-yloxy)acetamido]-3,6,9,12-tetraoxapentadecan-15-amido}-3-methylbutanamido]pentanamido]phenyl}methyl N-[(10S,23S)-10-ethyl-18-fluoro-10-hydroxy-19-methyl-5,9-dioxo-8-oxa-4,15-diazahexacyclo[14.7.1.0^2,^14.0^4,^13.0^6,^11.0^20,^24]tetracosa-1,6(11),12,14,16,18,20(24)-heptaen-23-yl]carbamate], the pEC50 is 6.54.

For the compound `CC[C@@]1(O)C(=O)OCc2c1cc1n(c2=O)Cc2c-1nc1cc(F)c(C)c3c1c2[C@@H](NC(=O)OCc1ccc(NC(=O)[C@H](CCCNC(N)=O)NC(=O)[C@@H](NC(=O)CCOCCOCCOCCOCCNC(=O)CCC(=O)N2Cc4ccccc4C#Cc4ccccc42)C(C)C)cc1)CC3` [LP2], the pEC50 is 6.84.

As for `CC[C@@]1(O)C(=O)OCc2c1cc1n(c2=O)Cc2c-1nc1cc(F)c(C)c3c1c2[C@@H](NC(=O)OCc1ccc(O[C@@H]2O[C@H](C(=O)O)[C@@H](O)[C@H](O)[C@H]2O)c(C(=O)NCCNC(=O)COC2C#CCCCCC2)c1)CC3` (stereo partly drawn) [LP3, (2S,3S,4S,5R,6S)-6-[2-({2-[2-(Cyclooct-2-yn-1-yloxy)acetamido]ethyl}carbamoyl)-4-[({[(10S,23S)-10-ethyl-18-fluoro-10-hydroxy-19-methyl-5,9-dioxo-8-oxa-4,15-diazahexacyclo[14.7.1.0^2,^14.0^4,^13.0^6,^11.0^20,^24]tetracosa-1,6(11),12,14,16,18,20(24)-heptaen-23-yl]carbamoyl}oxy)methyl]phenoxy]-3,4,5-trihydroxyoxane-2-carboxylic acid], the pEC50 is 6.34.

As for `CC[C@@]1(O)C(=O)OCc2c1cc1n(c2=O)Cc2c-1nc1cc(F)c(C)c3c1c2[C@@H](NC(=O)OCc1ccc(O[C@@H]2O[C@H](CO)[C@@H](O)[C@H](O)[C@H]2O)c(C(=O)NCCNC(=O)COC2C#CCCCCC2)c1)CC3` (stereo partly drawn) [LP4, [3-({2-[2-(Cyclooct-2-yn-1-yloxy)acetamido]ethyl}carbamoyl)-4-{[(2S,3R,4S,5S,6R)-3,4,5-trihydroxy-6-(hydroxymethyl)oxan-2-yl]oxy}phenyl]methyl N-[(10S,23S)-10-ethyl-18-fluoro-10-hydroxy-19-methyl-5,9-dioxo-8-oxa-4,15-diazahexacyclo[14.7.1.0^2,^14.0^4,^13.0^6,^11.0^20,^24]tetracosa-1,6(11),12,14,16,18,20(24)-heptaen-23-yl]carbamate], the pEC50 is 6.44.

Consider `CC[C@@]1(O)C(=O)OCc2c1cc1n(c2=O)Cc2c-1nc1cc(F)c(C)c3c1c2[C@@H](NC(=O)CNC(=O)OCc1ccc(NC(=O)[C@H](CCCNC(N)=O)NC(=O)[C@@H](NC(=O)CCOCCOCCOCCOCCNC(=O)COC2C#CCCCCC2)C(C)C)cc1)CC3` (stereo partly drawn) [LP5, {4-[(2S)-5-(Carbamoylamino)-2-[(2S)-2-{1-[2-(cyclooct-2-yn-1-yloxy)acetamido]-3,6,9,12-tetraoxapentadecan-15-amido}-3-methylbutanamido]pentanamido]phenyl}methyl N-({[(10S,23S)-10-ethyl-18-fluoro-10-hydroxy-19-methyl-5,9-dioxo-8-oxa-4,15-diazahexacyclo[14.7.1.0^2,^14.0^4,^13.0^6,^11.0^20,^24]tetracosa-1,6(11),12,14,16,18,20(24)-heptaen-23-yl]carbamoyl}methyl)carbamate], for which the pEC50 was < 6.00.

In the case of `CC[C@@]1(O)C(=O)OCc2c1cc1n(c2=O)Cc2c-1nc1cc(F)c(C)c3c1c2[C@@H](NC(=O)CNC(=O)CNC(=O)CNC(=O)CNC(=O)COC1C#CCCCCC1)CC3` (stereo partly drawn) [LP8, 2-(2-{2-[2-(Cyclooct-2-yn-1-yloxy)acetamido]acetamido}acetamido)-N-({[(10S,23S)-10-ethyl-18-fluoro-10-hydroxy-19-methyl-5,9-dioxo-8-oxa-4,15-diazahexacyclo[14.7.1.0^2,^14.0^4,^13.0^6,^11.0^20,^24]tetracosa-1,6(11),12,14,16,18,20(24)-heptaen-23-yl]carbamoyl}methyl)acetamide] ({Acetyl(cyclooct-2-yn-1-ylO)}-GGGG-Exatecan), the pEC50 was 6.08.

With `CC[C@@]1(O)C(=O)OCc2c1cc1n(c2=O)Cc2c-1nc1cc(F)c(C)c3c1c2[C@@H](NC(=O)[C@H](CCC(=O)O)NC(=O)OCc1ccc(NC(=O)[C@H](CCCNC(N)=O)NC(=O)[C@@H](NC(=O)CCOCCOCCOCCOCCNC(=O)COC2C#CCCCCC2)C(C)C)cc1)CC3` (stereo partly drawn) [LP9, (4S)-4-{[({4-[(2S)-5-(carbamoylamino)-2-[(2S)-2-{1-[2-(cyclooct-2-yn-1-yloxy)acetamido]-3,6,9,12-tetraoxapentadecan-15-amido}-3-methylbutanamido]pentanamido]phenyl}methoxy)carbonyl]amino}-4-{[(10S,23S)-10-ethyl-18-fluoro-10-hydroxy-19-methyl-5,9-dioxo-8-oxa-4,15-diazahexacyclo[14.7.1.0^2,^14.0^4,^13.0^6,^11.0^20,^24]tetracosa-1,6(11),12,14,16,18,20(24)-heptaen-23-yl]carbamoyl}butanoic acid], the pEC50 is 6.14.

`CC[C@@]1(O)C(=O)OCc2c1cc1n(c2=O)Cc2c-1nc1cc(F)c(C)c3c1c2[C@@H](NC(=O)[C@H](Cc1ccccc1)NC(=O)OCc1ccc(NC(=O)[C@H](CCCNC(N)=O)NC(=O)[C@@H](NC(=O)CCOCCOCCOCCOCCNC(=O)COC2C#CCCCCC2)C(C)C)cc1)CC3` (stereo partly drawn) [LP10, {4-[(2S)-5-(carbamoylamino)-2-[(2S)-2-{1-[2-(cyclooct-2-yn-1-yloxy)acetamido]-3,6,9,12-tetraoxapentadecan-15-amido}-3-methylbutanamido]pentanamido]phenyl}methyl N-[(1 S)-1-{[(10S,23S)-10-ethyl-18-fluoro-10-hydroxy-19-methyl-5,9-dioxo-8-oxa-4,15-diazahexacyclo[14.7.1.0^2,^14.0^4,^13.0^6,^11.0^20,^24]tetracosa-1,6(11),12,14,16,18,20(24)-heptaen-23-yl]carbamoyl}-2-phenylethyl]carbamate]: the pEC50 is 6.07.

In the case of `CC[C@@]1(O)C(=O)OCc2c1cc1n(c2=O)Cc2c-1nc1cc(F)c(C)c3c1c2[C@@H](NC(=O)[C@@H](N)CCCCNC(=O)OCc1ccc(NC(=O)[C@H](CCCNC(N)=O)NC(=O)[C@@H](NC(=O)CCOCCOCCOCCOCCNC(=O)COC2C#CCCCCC2)C(C)C)cc1)CC3` (stereo partly drawn) [LP11, {4-[(2S)-5-(carbamoylamino)-2-[(2S)-2-{1-[2-(cyclooct-2-yn-1-yloxy)acetamido]-3,6,9,12-tetraoxapentadecan-15-amido}-3-methylbutanamido]pentanamido]phenyl}methyl N-[(5S)-5-amino-5-{[(10S,23S)-10-ethyl-18-fluoro-10-hydroxy-19-methyl-5,9-dioxo-8-oxa-4,15-diazahexacyclo[14.7.1.0^2,^14.0^4,^13.0^6,^11.0^20,^24]tetracosa-1,6(11),12,14,16,18,20(24)-heptaen-23-yl]carbamoyl}pentyl]carbamate], the pEC50 was 6.68.
